Measured values reported in patent US20230374148A1, “BINDING MOLECULES THAT MULTIMERISE CD45” (UCB BIOPHARMA SRL, priority 2020, published 2023).

How the values were obtained:
Assay type in all cases: cell-based, human
M2 macrophages [1] = test: Macrophage viability, CellTiter-Glo, M2; conditions: 24 hr, BYbe 250-2 nM, Camptothecin, Staurosporine 5 μM
Experimental: (§1) Human PBMC derived from blood leukocyte platelet-apheresis cones (NHSBT Oxford) were banked as frozen aliquots. Prior to an assay being performed, 2 vials of frozen cells, each containing 5×10^7 cells in 1 ml, were thawed in a 37° C. water bath and then added to 50 ml complete media (RPMI 1640+2 mM GlutaMAX+1% Pen/Strep, all previous supplied by Invitrogen, +10% Fetal Bovine Serum (FBS), Sigma Aldrich). Cells were spun (500 g, 5 min, at RT) and re-suspended in 30 ml complete media to wash and spun again. Cells were resuspended in 20 ml MACS buffer (PBS, pH 7.2, 0.5% bovine serum albumin (BSA), and 2 mM EDTA, Sigma Aldrich) and counted on a ChemoMetec NucleoCounter NC-3000 to determine concentration and viability. PBMCs from one donor (UCB-Cones 802) was used in this assay.
(§2) Monocyte isolation was performed using the Pan Monocyte Isolation Kit (Miltenyi Biotec, cat no. 130-096-537) and LS columns (Miltenyi Biotec, cat no 130-042-401) according to manufacturer's instructions. 100 μl of cells were removed and stored on ice to check monocyte purity post isolation. […]
(§3) One microplate was incubated for a further 24 hours in 37° C. incubator with 5% CO2 before being used to assess cell viability with CellTiter-Glo®. […] The plate was then read on the BMG Labtech PHERAstar FSX microplate reader using the CellTiter-Glo program.

M1 macrophages [2] = test: Caspase-3/7 induction, IncuCyte, M1; conditions: over 6 days, BYbe 250-2 nM, Camptothecin, Staurosporine 5 μM
Experimental: (§4) Human PBMC derived from blood leukocyte platelet-apheresis cones (NHSBT Oxford) were banked as frozen aliquots. Prior to an assay being performed, 2 vials of frozen cells, each containing 5×10^7 cells in 1 ml, were thawed in a 37° C. water bath and then added to 50 ml complete media (RPMI 1640+2 mM GlutaMAX+1% Pen/Strep, all previous supplied by Invitrogen, +10% Fetal Bovine Serum (FBS), Sigma Aldrich). Cells were spun (500 g, 5 min, at RT) and re-suspended in 30 ml complete media to wash and spun again. Cells were resuspended in 20 ml MACS buffer (PBS, pH 7.2, 0.5% bovine serum albumin (BSA), and 2 mM EDTA, Sigma Aldrich) and counted on a ChemoMetec NucleoCounter NC-3000 to determine concentration and viability. PBMCs from one donor (UCB-Cones 802) was used in this assay. Monocyte isolation was performed using the Pan Monocyte Isolation Kit (Miltenyi Biotec, cat no. 130-096-537) and LS columns (Miltenyi Biotec, cat no 130-042-401) according to manufacturer's instructions. 100 μl of cells were removed and stored on ice to check monocyte purity post isolation. Isolated cells were stained with BV421 mouse anti-human CD14 (BD Biosciences, cat no. 563743) to check for purity of monocytes using FACS. M-CSF (Sigma Aldrich, cat no. SRP3110) and GM-CSF (R&D Systems, cat no. 215-GM/CF) were prepared at 100 μg/ml. Cells were prepared in M1 media (complete media+50 ng/ml GM-CSF) or M2 media (complete media+50 ng/ml M-CSF) at a concentration of 2.5×10^5 cells/ml. 200 μl cells were plated into two Corning 96 well Black polystyrene microplates (Sigma Aldrich) and incubated at 37° C., 5% CO2. Following a 3-day incubation at 37° C., 5% CO2, the plate was spun (500 g, 5 min, RT), buffer was aspirated, the cells were washed once with PBS and then resuspended in 200 μL of M1 media or M2 media. […] The caspase dye was measured with the green laser (350 ms) and the cytotox dye was measured with a red laser (650 ms). The green dye signal was analysed using Incucyte® Zoom2016B. […]

M2 macrophages [3] = test: Caspase-3/7 induction, IncuCyte, M2; conditions: over 6 days, BYbe 250-2 nM, Camptothecin, Staurosporine 5 μM
Experimental: as §4

M1 macrophages [4] = test: Macrophage viability, CellTiter-Glo, M1; conditions: 24 hr, BYbe 250-2 nM, Camptothecin, Staurosporine 5 μM
Experimental: as §1, §2, §3

Row | SMILES | cell viability (CellTiter-Glo) (M2 macrophages [1]) | levels of Caspase-3/7 (M1 macrophages [2]) | levels of Caspase-3/7 (M2 macrophages [3]) | cell viability (CellTiter-Glo) (M1 macrophages [4])
1 | CN[C@@H]1C[C@H]2O[C@@](C)([C@@H]1OC)n1c3ccccc3c3c4c(c5c6ccccc6n2c5c31)C(=O)NC4 [Staurosporine] | little or no viable cells detected | very low | very low | little or no viable cells detected
2 | CC[C@@]1(O)C(=O)OCc2c1cc1n(c2=O)Cc2cc3ccccc3nc2-1 [Camptothecin] | reduced the viability | significant levels | significant levels | reduced the viability
